Data from patent US10226509B2, “Lymphangiogenesis inhibitors for cancer and for graft survival” (TUFTS UNIVERSITY, priority 2014, dated 2019).

Key:
PDPN = assay: Cell surface expression of PDPN by flow cytometry; type: cell-based, human; details: 30 min post-treatment; Gal-8 0.2 μM
Method: Primary LECs were serum-starved overnight in basal EBM-2 medium. The cells were incubated with or without VEGF-C (50 ng/ml, PeproTech) or Gal-8 (0.2 μM) in serum-free EBM-2 medium for 10 and 30 min. At the end of the incubation period, cells were lifted with StemPro® Accutase® cell dissociation reagent (Invitrogen), washed with PBS and fixed with 4% paraformaldehyde/PBS on ice for 10 min, and were then stained using rat anti-human PDPN (1:500, BioLegend) and mouse anti-human VEGFR-3 (clone 9D9F9) (1:100, BioLegend) primary antibodies in cell staining buffer (BioLegend, 45 min on ice) and Alexa Fluor® 488 donkey anti-rat and Alexa Fluor® 647 anti-mouse secondary antibodies (1:1000, Invitrogen, 30 min on ice). For negative control, the primary antibodies were omitted. The stained cells were fixed with 2% paraformaldehyde/PBS, analyzed with BD FACSCalibur, and the mean fluorescence intensity of VEGFR-3 and PDPN were quantified with the FlowJo software (version 9.5.2).

LEC plasma membrane = assay: Immunocytochemistry / confocal microscopy of receptor clustering on LECs; type: cell-based, human
Method: […] Cells were blocked with Image-iT® signal enhancer (30 min, 25° C., Invitrogen) and incubated with primary antibodies (rat anti-human PDPN, 1:300, BioLegend; mouse anti-human VEGFR-3, 9D9F9, 1:100, BioLegend; rabbit anti-Gal-8, H-80, 1:100, Santa Cruz Biotechnology) in 2% BSA/PBS at 4° C. overnight. The cells were then washed with 2% BSA/PBS three times and incubated with appropriate secondary antibodies (Alexa Fluor® 488 anti-mouse, 1:200, Invitrogen; Alexa Fluor® 568 anti-rabbit, 1:200, Invitrogen; Alexa Fluor 647® anti-rat, 1:300, Jackson ImmunoResearch) at 25° C. for 1 hr. Cells were washed with PBS, slides were mounted with ProLong Gold antifade reagent with DAPI (Invitrogen) and were examined with the Leica TCS SPE imaging system (Leica).
Since galectin-glycan lattices segregate the cell surface receptors into discrete domains to initiate cell signaling (Lajoie, P., et al. 2009. J Cell Biol 185:381-385), assays were performed to determine whether Gal-8 clusters PDPN and VEGFR-3 on LEC plasma membrane. LECs were treated with Gal-8 for 15 minutes, fixed, stained with anti-PDPN, VEGFR-3 and Gal-8 antibodies, and examined by confocal microscopy. In control cells, which were incubated with buffer only, both PDPN and VEGFR-3 were homogenously distributed all over the LEC and in cell borders; endogenous Gal-8 was mainly distributed in cytosol (FIG. 9A-FIG. 9D). […]

VEGFR-3 = assay: Affinity precipitation assay, VEGFR-3; type: binding, human; details: galectin-conjugated agarose beads, LEC lysates
Method: Five mg of plant lectins (Vector Labs) and galectins were conjugated to 330 mg of Pierce® NHS-activated agarose dry resin in accordance with the manufacturer's instructions (Thermo Scientific). Primary LECs (Lonza) were lysed in Triton lysis buffer (20 mM Tris-HCl, pH 7.4; 150 mM NaCl; 0.5% Triton X-100 with protease inhibitor cocktail). LEC lysates (250 μg in 500 μL lysis buffer supplemented with 10 mM MgCl2) were incubated with 40 μL (50% slurry) of agarose-conjugated lectins (4° C., overnight). Beads were pelleted by centrifugation at 3000 rpm for 1 min. Non-specific binding proteins were removed by washing the beads with Triton lysis buffer once and PBS twice. Supernatants were discarded; bound proteins were eluted by boiling the beads with 20 μL of 2× Laemmli sample buffer for 7 min, and examined by western blotting.
Next, a series of examples were performed to determine whether VEGF-C-induced lymphangiogenesis is dependent on Gal-8. To determine whether VEGFR-3 is a Gal-8-binding protein, LEC lysates were incubated with Gal-8-conjugated agarose beads in the presence or absence of 0.1 M of lactose (an inhibiting sugar) or sucrose (a non-inhibiting sugar). Bound proteins were examined and were compared to total cell lysates (input) by western blot using anti-VEGFR-3 antibody. Three forms of VEGFR-3 (125 kDa, 175 kDa and 195 kDa) were detected in total cell lysates (FIG. 5A) (Bando, H., et al. 2004. Int J Cancer 111:184-191.). […] Having shown that Gal-8 binds to VEGFR-3 in LECs and that the carbohydrate-binding activity of Gal-8 is required for the synergistic effect of Gal-8 on VEGF-C-induced LEC sprouting, it was of interest to determine whether VEGFR-3 bears 3′-sialylated glycans.

PDPN and integrin α5β1 = biological target: T1, PDPN and integrin α5β1 (Homo sapiens, UniProt P05556+P08648+Q86YL7); assay: Immunoprecipitation with anti-PDPN from LEC lysates; type: cell-based; details: galectin-8 for 15 min at 37° C.
T1 construct: endogenous in cells; host or cells: primary lymphatic endothelial cells (LECs)
T1 sequence (Q86YL7 23-162): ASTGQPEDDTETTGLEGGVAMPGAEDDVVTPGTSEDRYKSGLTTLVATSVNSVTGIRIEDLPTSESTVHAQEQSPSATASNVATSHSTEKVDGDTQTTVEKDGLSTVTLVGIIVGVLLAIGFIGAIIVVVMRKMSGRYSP
T1 sequence (P08648 42-894 limits assumed): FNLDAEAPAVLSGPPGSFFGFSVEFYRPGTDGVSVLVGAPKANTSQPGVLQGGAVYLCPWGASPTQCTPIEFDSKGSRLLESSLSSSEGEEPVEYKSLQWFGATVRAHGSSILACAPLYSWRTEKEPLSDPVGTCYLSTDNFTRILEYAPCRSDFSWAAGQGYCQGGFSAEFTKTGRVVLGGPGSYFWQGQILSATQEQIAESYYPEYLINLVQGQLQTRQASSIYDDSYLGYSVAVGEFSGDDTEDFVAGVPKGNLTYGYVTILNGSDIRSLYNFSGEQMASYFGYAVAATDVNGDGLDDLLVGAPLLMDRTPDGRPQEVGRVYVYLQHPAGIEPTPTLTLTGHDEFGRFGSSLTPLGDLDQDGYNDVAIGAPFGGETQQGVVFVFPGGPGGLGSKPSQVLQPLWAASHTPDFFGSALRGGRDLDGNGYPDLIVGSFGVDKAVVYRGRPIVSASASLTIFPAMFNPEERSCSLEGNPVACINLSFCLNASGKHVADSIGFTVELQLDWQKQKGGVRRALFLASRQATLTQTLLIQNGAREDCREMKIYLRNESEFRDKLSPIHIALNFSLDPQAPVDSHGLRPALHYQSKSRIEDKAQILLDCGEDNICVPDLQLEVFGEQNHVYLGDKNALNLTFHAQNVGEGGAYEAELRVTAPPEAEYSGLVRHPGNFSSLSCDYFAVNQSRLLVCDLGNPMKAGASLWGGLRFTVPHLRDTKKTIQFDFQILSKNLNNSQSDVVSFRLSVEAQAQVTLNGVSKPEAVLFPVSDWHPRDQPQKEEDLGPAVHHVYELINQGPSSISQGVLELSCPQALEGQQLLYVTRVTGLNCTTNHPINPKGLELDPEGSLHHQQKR
T1 sequence (P08648 895-1049 limits assumed): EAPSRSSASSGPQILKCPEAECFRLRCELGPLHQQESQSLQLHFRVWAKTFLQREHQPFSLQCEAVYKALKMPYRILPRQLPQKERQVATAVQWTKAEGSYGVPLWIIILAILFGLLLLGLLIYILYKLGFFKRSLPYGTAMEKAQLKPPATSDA
T1 sequence (P05556 21-798): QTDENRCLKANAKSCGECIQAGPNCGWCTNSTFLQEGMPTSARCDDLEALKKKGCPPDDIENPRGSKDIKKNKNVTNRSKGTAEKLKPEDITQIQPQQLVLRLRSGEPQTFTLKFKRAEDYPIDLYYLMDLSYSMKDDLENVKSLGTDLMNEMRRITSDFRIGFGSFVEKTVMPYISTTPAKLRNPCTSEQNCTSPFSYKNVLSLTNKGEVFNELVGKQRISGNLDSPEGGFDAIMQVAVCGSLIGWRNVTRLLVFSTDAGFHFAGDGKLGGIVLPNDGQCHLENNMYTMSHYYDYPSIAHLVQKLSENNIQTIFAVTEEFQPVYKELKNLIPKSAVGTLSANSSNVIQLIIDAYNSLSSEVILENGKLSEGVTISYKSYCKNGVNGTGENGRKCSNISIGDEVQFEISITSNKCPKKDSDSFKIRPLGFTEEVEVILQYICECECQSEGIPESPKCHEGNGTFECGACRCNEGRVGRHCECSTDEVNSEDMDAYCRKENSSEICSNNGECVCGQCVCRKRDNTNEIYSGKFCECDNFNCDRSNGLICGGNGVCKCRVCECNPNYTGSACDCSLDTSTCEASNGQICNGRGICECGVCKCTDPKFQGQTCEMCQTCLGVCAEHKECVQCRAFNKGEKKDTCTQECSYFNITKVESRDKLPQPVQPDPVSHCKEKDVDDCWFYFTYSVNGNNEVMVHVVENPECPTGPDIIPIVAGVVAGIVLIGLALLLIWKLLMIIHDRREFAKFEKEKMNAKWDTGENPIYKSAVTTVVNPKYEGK
Method: Mouse isotype antibody (15 μg, Santa Cruz Biotechnology) and anti-PDPN (15 μg, clone E-1, Santa Cruz Biotechnology) were immobilized onto AminoLink Plus coupling resin (Pierce) by sodium cyanoborohydride according to manufacturer's instructions. Primary LECs were serum-starved overnight and treated with galectin-8 (0.2 μM) for 15 min at 37° C. After treatment, cells were lysed with IP lysis/wash buffer (25 mM Tris, 150 mM NaCl, 1 mM EDTA, 1% NP-40, 5% glycerol; pH 7.4) supplemented with protease inhibitor cocktails (Roche). After centrifugation (10 min, 13,000 rpm), supernatants (500 μg protein lysates) were pre-cleared by incubation for 1 hour with Pierce control agarose resin at 4° C. The clarified samples were incubated with the Ab-conjugated agarose resins overnight at 4° C. Immunoprecipitates were washed three times with IP lysis/wash buffer and once with conditioning buffer provided by the kit (Pierce). The bound proteins were eluted with low pH elution buffer, neutralized with Tris-HCl (pH 9.0), and analyzed with control inputs by western blotting using anti-integrin al (1:1,000, Abcam), anti-integrin α5 (clone H-104, 1:1,000, Santa Cruz Biotechnology), anti-integrin ([…] (clone N-20, 1:1,000, Santa Cruz Biotechnology), anti-PDPN, anti-galectin-8 (clone NBP1-66520, 1:1,000, Novus Biologicals) and anti-GAPDH as described in examples herein. […]

Gal-8: recombinant galectin-8, tandem-repeat type galectin with two different CRDs
increase of cell surface expression of PDPN (PDPN): about 30% | distribution of PDPN and VEGFR-3 on LECs (LEC plasma membrane; Gal-8 for 15 minutes): caused dramatic redistribution and clustering of PDPN and VEGFR-3 on LEC plasma membrane | distribution of PDPN and integrin β1 on LECs (LEC plasma membrane; galectin-8 for 15 minutes, no permeabilization): caused dramatic redistribution and clustering of PDPN and integrin β1 on LEC plasma membrane | binding to VEGFR-3 (in words) (VEGFR-3): interacted with 125 and 195 kDa VEGFR-3 and not with 175 kDa VEGFR-3 | association between PDPN and integrin α5β1 (PDPN and integrin α5β1): increased association between PDPN and integrin α5β1
